In patent publication US20260234185A1, “ANTI-AGING COMPOSITION COMPRISING PEPTIDE COMPLEX AS ACTIVE INGREDIENT” (priority 2023, published 2026):
Where no end group is shown, it is not given here.

Key:
Type in all cases: cell-based
[1] = system: AMP-activated protein kinase (AMPK); assay: Western blot of AMPK phosphorylation in adipocytes; settings: differentiated 3T3-L1 adipocytes; 0.2, 2, 20 μg/mL; 1 hour; Western blot (FIGS. 1a, 1b)
Method: (§1) An experiment was performed to determine whether the peptide complex prepared in Preparation Example 1 using adipocytes increases the phosphorylation of AMP-activated protein kinase (AMPK), which is a longevity-related protein, and increases the expression levels of sirtuin 1 (SIRT1) and fibroblast growth factor 21 (FGF21) proteins in adipocytes.
(§2) When 3T3-L1 preadipocytes reached 80% confluence, they were seeded at 5×10^3 cells/well in a 96-well plate and used for the experiment. Two days after reaching confluence, the medium was replaced with a differentiation-inducing medium to induce the differentiation into adipocytes, and two days after the induction, the cells were cultured for 2 days in a medium containing 10% FBS and 10 μg/mL insulin, and then the medium was replaced with 10% FBS every 2 days until their differentiation into adipocytes. Once the differentiation was complete, the medium was replaced with a serum-free medium and cultured for 4 hours to induce starvation. The peptide complexes were treated at concentrations of 0.2 μg/mL, 2 μg/mL, and 20 μg/mL, incubated for 1 hour, dissolved by adding dissolution buffer thereto, and the proteins obtained by centrifugation at 4° C. and 12,000 rpm for 30 minutes were quantified using a BCA kit. […]

[2] = system: fibroblast growth factor 21 (FGF21); assay: Western blot of FGF21 protein expression in adipocytes; settings: differentiated 3T3-L1 adipocytes; 0.2, 2, 20 μg/mL; 1 hour; Western blot (FIGS. 1a, 1b)
Method: as §1, §2

[3] = system: inflammatory cytokine TNFα; assay: Western blot of TNFα expression in adipocytes with palmitate-induced inflammation; settings: 3T3-L1 adipocytes, inflammation induced by 25 μM palmitate; 0.2, 2, 20 μg/mL; 24 hours; Western blot vs PA control (FIGS. 5a, 5b)
Method: An experiment was performed to determine whether the peptide complex prepared in Preparation Example 1 induces a decrease in the phosphorylation of IκBα and a decrease in the expression level of the inflammatory cytokine TNFα in adipocytes under an inflammatory state induced by palmitate treatment.
When 3T3-L1 preadipocytes reached 80% confluence, they were seeded at 5×10^3 cells/well in a 96-well plate and used for the experiment. Two days after reaching confluence, the medium was replaced with a differentiation-inducing medium to induce the differentiation into adipocytes. Two days after the induction, the cells were cultured for 2 days in a medium containing 10% FBS and 10 μg/mL insulin, and then the medium was replaced with 10% FBS every days 2 until their differentiation into adipocytes. Once the differentiation was complete, the medium was replaced with a serum-free medium and cultured for 4 hours to induce starvation. After treating with 25 μM palmitate for 30 minutes, the peptide complexes were treated at concentrations of 0.2 μg/mL, 2 μg/mL, and 20 μg/mL and incubated for 24 hours. The control group (PA) was treated only with palmitate but not with the peptide complex. After dissolving by adding dissolution buffer thereto, the proteins obtained by centrifugation at 4° C. and 12,000 rpm for 30 minutes were quantified using a BCA kit. […]

[4] = system: AMP-activated protein kinase (AMPK) gene; assay: RT-PCR of AMPK gene expression in palmitate-treated adipocytes; settings: 3T3-L1 adipocytes, 25 μM palmitate 30 minutes; 0.2, 2, 20 μg/mL; 24 hours; RT-PCR vs palmitate control (PA) (FIGS. 4a, 4b)
Method: (§3) An experiment was performed to determine whether the peptide complex prepared in Preparation Example 1 increases the gene expression of longevity-related genes, FGF21, SIRT1, AMPK, and FOXO3A, in adipocytes in a state of insulin metabolic disorder induced by palmitate treatment.
(§4) When 3T3-L1 preadipocytes reached 80% confluence, they were seeded at 5×10^3 cells/well in a 96-well plate and used for the experiment. Two days after reaching confluence, the medium was replaced with differentiation-inducing medium to induce the differentiation into adipocytes, and two days after the induction, the medium was cultured for 2 days in a medium containing 10% FBS and 10 μg/mL insulin, and then the medium was replaced with 10% FBS every 2 days until their differentiation into adipocytes. After differentiation was complete, the medium was replaced with glucose-free medium, cultured for 16 hours, and then starvation was induced by culturing for 40 minutes in 100 μL KPPH buffer containing 2% BSA. After treating with 25 μM palmitate for 30 minutes, the peptide complexes were treated at concentrations of 0.2 μg/mL, 2 μg/mL, and 20 μg/mL, cultured for 24 hours, and RNA was extracted after 24 hours and RT-PCR was performed. […] Subsequently, the mRNA expression pattern was determined by agarose gel electrophoresis.

[5] = system: fibroblast growth factor 21 (FGF21) gene; assay: RT-PCR of FGF21 gene expression in palmitate-treated adipocytes; settings: 3T3-L1 adipocytes, 25 μM palmitate 30 minutes; 0.2, 2, 20 μg/mL; 24 hours; RT-PCR vs palmitate control (PA) (FIGS. 4a, 4b)
Method: as §3, §4

Q: For “peptide complex: prepared by mixing equal amounts of the peptide of SEQ ID NO: 1 (LKTRN) and the peptide of SEQ ID NO: 2 (KGSATGWMA) (also: mixture of two peptides)”, which “phosphorylation of AMPKα” value [1] is on record?
A: increased

Q: And the “expression level of FGF21 protein” value [2]?
A: increased

Q: And the “expression level of TNFα” value [3]?
A: reduced

Q: And the “expression of AMP-activated protein kinase (AMPK) gene” value [4]?
A: increased

Q: And the “expression of fibroblast growth factor 21 (FGF21) gene” value [5]?
A: increased
